Source: ChEMBL document CHEMBL1201862, “PubChem BioAssay data set” (2004)
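Briefly, cells in 96-well plates were exposed to five compound concentrations for 48 h, and endpoints were estimated by linear interpolation. The concentration for 50% growth inhibition is given as GI50.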 The source made the active and inactive calls. Cut-off read from the data, not from the text of the source: active = GI50 up to about 1.1 µM and inactive = higher.

Legend:
Assay in all cases: DTP human tumour cell line panel, 48 h
SW-620 = tested on: SW-620
SK-OV-3 = tested on: SK-OV-3
SNB-75 = tested on: SNB-75
TK-10 = tested on: TK-10
OVCAR-4 = tested on: OVCAR-4
SK-MEL-5 = tested on: SK-MEL-5
K562 = tested on: K562
NCI-H460 = tested on: NCI-H460
CAKI-1 = tested on: CAKI-1
SN12C = tested on: SN12C
A498 = tested on: A498
MOLT-4 = tested on: MOLT-4
LOX IMVI = tested on: LOX IMVI
M14 = tested on: M14
IGROV-1 = tested on: IGROV-1
OVCAR-3 = tested on: OVCAR-3
HT-29 = tested on: HT-29
NCI-H522 = tested on: NCI-H522
OVCAR-5 = tested on: OVCAR-5
HCC 2998 = tested on: HCC 2998

Measured: GI50

O=C1CCC2COc3ccc(O)c1c32 (centres undefined)
inactive: SW-620 > 100 µM | SK-OV-3 > 100 µM | SNB-75 77.6 µM | TK-10 > 100 µM | OVCAR-4 > 100 µM | SK-MEL-5 > 100 µM | K562 > 100 µM | NCI-H460 > 100 µM | CAKI-1 > 100 µM | SN12C > 100 µM | A498 > 100 µM | MOLT-4 > 100 µM | LOX IMVI > 100 µM | M14 > 100 µM | IGROV-1 > 100 µM | OVCAR-3 > 100 µM | HT-29 > 100 µM

CNc1ccc2c(c1)[C@@]1(C)c3ccccc3[C@@H](C2)N1C
inactive: SW-620 33.7 µM | SK-OV-3 43.8 µM | TK-10 28.8 µM | OVCAR-4 30.7 µM | SK-MEL-5 17.7 µM | K562 23.2 µM | NCI-H460 18.4 µM | CAKI-1 36.5 µM | SN12C 17.4 µM | A498 26.4 µM | MOLT-4 17.5 µM | LOX IMVI 19.5 µM | NCI-H522 15.7 µM | OVCAR-5 25.9 µM | M14 21.6 µM | IGROV-1 48.9 µM | OVCAR-3 20.1 µM | HT-29 18.8 µM | HCC 2998 20.1 µM

O=C1/C(=C/c2ccc(Oc3ccccc3)cc2)N=C(c2ccccc2)N1c1ccc(S(=O)(=O)Nc2nccs2)cc1
inactive: SW-620 13.9 µM | SK-OV-3 27.8 µM | SNB-75 7.53 µM | TK-10 26.8 µM | OVCAR-4 38.6 µM | SK-MEL-5 17.5 µM | K562 7.48 µM | NCI-H460 25.5 µM | CAKI-1 21.7 µM | SN12C 39.8 µM | A498 18.1 µM | MOLT-4 12.6 µM | LOX IMVI 21.5 µM | OVCAR-5 40.4 µM | M14 15.3 µM | OVCAR-3 17.3 µM | HT-29 9.68 µM | HCC 2998 1.56 µM

CCOC(=O)CC[C@H](NC(=O)c1nc[nH]c1/N=N/N(C)C)C(=O)OCC
inactive: SW-620 > 100 µM | SK-OV-3 > 100 µM | OVCAR-4 > 100 µM | SK-MEL-5 > 100 µM | K562 > 100 µM | NCI-H460 > 100 µM | CAKI-1 > 100 µM | SN12C > 100 µM | A498 > 100 µM | MOLT-4 > 100 µM | LOX IMVI > 100 µM | NCI-H522 > 100 µM | M14 > 100 µM | IGROV-1 > 100 µM | OVCAR-3 > 100 µM | HT-29 > 100 µM | HCC 2998 > 100 µM

O=P1(O)c2ccccc2CS(=O)(=O)Cc2ccccc21
inactive: SW-620 > 100 µM | SK-OV-3 > 100 µM | TK-10 > 100 µM | OVCAR-4 > 100 µM | SK-MEL-5 > 100 µM | K562 > 100 µM | NCI-H460 > 100 µM | CAKI-1 > 100 µM | SN12C > 100 µM | A498 > 100 µM | MOLT-4 > 100 µM | LOX IMVI > 100 µM | NCI-H522 > 100 µM | OVCAR-5 > 100 µM | M14 > 100 µM | IGROV-1 > 100 µM | OVCAR-3 > 100 µM | HT-29 > 100 µM | HCC 2998 > 100 µM

COc1ccc(C(C2C(=O)N(C)C(=O)N(C)C2=O)C(F)(F)C(=O)N(C)C)cc1 (centres undefined)
inactive: SW-620 > 100 µM | SK-OV-3 > 100 µM | SNB-75 > 100 µM | TK-10 > 100 µM | OVCAR-4 > 100 µM | SK-MEL-5 > 100 µM | NCI-H460 > 100 µM | CAKI-1 > 100 µM | A498 > 100 µM | LOX IMVI > 100 µM | OVCAR-5 > 100 µM | M14 > 100 µM | OVCAR-3 > 100 µM | HCC 2998 > 100 µM

COc1ccc(OCC(C)(C)O)cc1
inactive: SW-620 > 100 µM | SK-OV-3 > 100 µM | SNB-75 > 47 µM | OVCAR-4 > 62.8 µM | SK-MEL-5 > 100 µM | K562 > 100 µM | NCI-H460 > 100 µM | CAKI-1 > 100 µM | SN12C > 100 µM | A498 > 100 µM | MOLT-4 > 100 µM | LOX IMVI > 100 µM | OVCAR-5 > 100 µM | IGROV-1 > 100 µM | OVCAR-3 > 100 µM | HT-29 > 100 µM | HCC 2998 > 100 µM

CN(C)/N=C(/c1nc2ccc(Cl)cc2nc1O)C(O)c1ccc(C(O)/C(=N\N(C)C)c2nc3ccc(Cl)cc3nc2O)cc1 (centres undefined)
inactive: SW-620 > 100 µM | SK-OV-3 > 100 µM | TK-10 > 100 µM | OVCAR-4 > 100 µM | SK-MEL-5 > 100 µM | K562 60.3 µM | NCI-H460 > 100 µM | CAKI-1 > 100 µM | SN12C > 100 µM | A498 61 µM | MOLT-4 52.4 µM | NCI-H522 > 100 µM | OVCAR-5 > 100 µM | M14 > 100 µM | IGROV-1 > 100 µM | OVCAR-3 > 100 µM | HT-29 > 100 µM | HCC 2998 > 100 µM
